A short description of data set [1]: Activation of sGC heme complex expressed in Sf9 cells at 150 uM in presence of carbon monoxide relative to control. To be noted: Homo sapiens.
Data set [2] can be described thus: Activation of sGC heme complex expressed in Sf9 cells at 150 uM relative to control. To be noted: Homo sapiens.
Data set [3] in a line: Activation of sGC heme complex expressed in Sf9 cells at 150 uM in presence of nitric oxide relative to control. To be noted: Homo sapiens.
Data set [4] can be described thus: Activation of sGC heme complex expressed in Sf9 cells at 800 uM relative to control. To be noted: Homo sapiens.
The nature of data set [5]: Activation of sGC heme complex expressed in Sf9 cells at 800 uM in presence of nitric oxide relative to control. To be noted: Homo sapiens.
Data set [6] is described as follows: Activation of sGC heme complex expressed in Sf9 cells at 800 uM in presence of carbon monoxide relative to control. To be noted: Homo sapiens.
Data set [7] in a line: Aqueous solubility of the compound. In kind it is physicochemical.

On to `OCc1ccc(-c2nn(Cc3ccccc3)c3ccccc23)o1`, for which the Activity in data set [1] came out at 87; in data set [2], 6.4; in data set [3], 270.

In general, solubility refers to the concentration that dissolves in the medium under given conditions. Lower therefore signals little dissolved substance. Consider `O=P(O)(O)Cc1ccc(-c2nn(Cc3ccccc3)c3ccccc23)o1`, for which the Activity worked out at 1.4 in data set [4]; 16 in data set [1]; 10 in data set [5]; 5.2 in data set [2]; 1.2 in data set [6]; 38 in data set [3]. The solubility in data set [7] was > 800 µM.

(Values after ChEMBL document CHEMBL1140670, “Synthesis and evaluation of a phosphonate analogue of the soluble guanylate cyclase activator YC-1” (Bioorg Med Chem Lett, 2007).)
